Assays:
[1] = Plasma stability test, mouse plasma; format: in vitro ADME; settings: 37° C., 300 μM
Experimental: (§1) Compound A-2 or A-3 and MPS used as an internal standard were dissolved in DMSO to achieve a concentration of 60 mM. Then, each of human plasma (Biochemed 752PR-SC-PMG), mouse plasma (Biochemed 029-APSC-MP), rat plasma (Biochemed 031-APSC-MP), and beagle dog plasma (Biochemed 013-APSC-MP) were mixed with the solution of the compound and MPS to achieve a final concentration of 300 μM (final 0.5% DMSO). The resulting plasma mixtures were incubated at 37° C. Aliquots were taken before the reaction and after 1 day, 2 days, 4 days, and 7 days. Each aliquot was 300 μL. To complete the reaction, two-fold volume of acetonitrile was added, followed by brief vortexing and centrifugation for plasma protein precipitation. Each supernatant obtained after centrifugation was collected and analyzed by HPLC. Compounds A-2 and A-3 were detected and quantitated in the mouse and human plasma for up to 7 days (>95%). […] The results of the plasma stability studies are shown in Tables 3 and 4 and FIGS. 6 and 7.

[2] = Plasma stability test, human plasma; format: in vitro ADME; settings: 37° C., 300 μM
Experimental: as §1

Row | Structure (SMILES) | Remaining Substrate, %, Mouse Plasma ([1]; 0 days) [%] | Remaining Substrate, %, Mouse Plasma ([1]; 1 day) [%] | Remaining Substrate, %, Mouse Plasma ([1]; 2 days) [%] | Remaining Substrate, %, Mouse Plasma ([1]; 7 days) [%] | Remaining Substrate, %, Human Plasma ([2]; 0 days) [%] | Remaining Substrate, %, Human Plasma ([2]; 1 day) [%] | Remaining Substrate, %, Human Plasma ([2]; 2 days) [%] | Remaining Substrate, %, Human Plasma ([2]; 7 days) [%] | Remaining Substrate, %, Mouse Plasma ([1]; 4 days) [%] | Remaining Substrate, %, Human Plasma ([2]; 4 days) [%]
1 | C[N+]1(Cc2ccc(OS(=O)(=NCCOCCOCCOCCN=[N+]=[N-])Oc3ccccc3O[C@@H]3O[C@H](CO)[C@H](O)[C@H](O)[C@H]3O)cc2)CCCC[C@@H]1C(=O)Nc1ccccc1 (stereo partly drawn) [Compound A-3] | 100 | 94 | 90 | 92 | 100 | 97 | 98 | 99 | – | –
2 | CC(C)(C)OC(=O)N[C@@H](Cc1ccc(OS(=O)(=NCCOCCOCCOCCN=[N+]=[N-])Oc2ccccc2O[C@@H]2O[C@H](CO)[C@H](O)[C@H](O)[C@H]2O)cc1)C(=O)O (stereo partly drawn) [Compound A-2] | 100 | 102 | 100 | 95 | 100 | 100 | 104 | 101 | 97 | 99

From patent US12551570B2, “Compounds comprising cleavable linker and uses thereof” (IntoCell, Inc., priority 2019, dated 2026)
